Entries after “also recorded” stand apart in the source; their conditions may differ.

For series [1], the system named is CV-1. The series is described as follows: Cell viability SRB assay, 96 h. Particulars: Cercopithecidae, CV-1 fibroblast cell line. In kind it is cell-based. As for the experimental part: Cells were plated in 96-well plates at a density of 800-5,000 cells/well, depending on the cell line, in their required growth media containing 10% fetal bovine serum. Preliminary studies were performed with each cell line using a variety of cell densities and incubation times to determine appropriate seeding densities. The compound of interest was dissolved in DMSO, diluted in cell culture medium (final DMSO concentration was less than 0.5% v/v), and added to quadruplicate wells at final concentrations ranging from 0 to 100 μM. Control wells to which only drug-free vehicle was added were included as negative controls.
Cells were incubated for 96 hour at 37° C. in a humidified atmosphere containing 5% carbon dioxide.
A general note: Sulforhodamine B stains cellular protein and so reports cell mass.

In series [2] the test system is HT-29. Briefly: Growth inhibition assay (SRB, 96 h). In kind it is cell-based. The note with it: Homo sapiens, HT-29, 96 h. The text has this:
(§1) MTT (3-(4,5-dimethylthiazol-2-yl)-2,5-diphenyltetrazolium bromide) assay was also used for the leukemia cell lines. […] Cells were stained with SRB solution or MTT solution.

The test system of series [3] is MCF-7. The series is described as follows: Growth inhibition assay (SRB, 96 h). In kind it is cell-based. The note with it: Homo sapiens, MCF7; MCF-7, 96 h.
Source text: as §1

Series [4] has as its system TSU-Pr1. Briefly: Growth inhibition assay (SRB, 96 h). In kind it is cell-based. Particulars: Homo sapiens, TSU-Pr1, 96 h.
Source text: as §1

Series [5] deals with HEK293-pcDNA3.1. The series is described as follows: Growth inhibition assay (96 h). In kind it is cell-based, human. Particulars: Homo sapiens, HEK293-pcDNA3.1 (control for MRP).
Source text: as §1

Series [6] deals with MES-SA/DX5. The series is described as follows: Growth inhibition assay (96 h). Particulars: for resistance factor (ratio of IC50 resistant subline to parental cell line): MES-SA/DX5 vs MES-SA (P-gp). In kind it is cell-based, human.
Source text: as §1

Series [7] concerns MRP1 (over-expressed in the cells). The series is described as follows: Growth inhibition assay (96 h). In kind it is cell-based, human. Particulars: human, HEK293 cells over-expressing MRP1 (HEK293-MRP1); HEK293-MRP1, MRP1 over-expressed, 96 h.
For series [8], the system named is PC-3 cells. Briefly: DNA fragmentation by cell death detection ELISA (anti-histone). In kind it is cell-based. Particulars: Homo sapiens, 24 h, read-out: EC50 of increase of enrichment factor (DNA fragmentation). As for the experimental part: Apoptosis was measured by quantitation of cytoplasmic histone-associated DNA fragments using the cell death detection ELISA kit. Cells were seeded in 6-well plates and exposed to 68 for 24 h at different concentrations. The quantitation of DNA fragments was performed according to the manufacturer's instructions. Results are expressed as the enrichment factor (i.e., the ratio of the optical density in treated cells to the optical density in control cells).
(ELISA stands for enzyme-linked immunosorbent assay.)

The subject of series [9] is PC-3 cells. The series is described as follows: Cell cycle analysis (PI staining, FACS). Particulars: for percentage of PC-3 cells in G2M phase: 24 h; for EC50: Homo sapiens, 0.1 nM to 1 μM, read-out: EC50 of cell cycle arrest in G2M phase; for EC50 / percentage of sub-G1 phase: PC-3, 24 h. In kind it is cell-based, human. As for the experimental part:
Cell cycle distribution was determined by propidium iodide (PI) staining. Treated cells were washed with PBS and fixed with 70% ice-cold ethanol overnight. Fixed cells were then stained with 20 μg/mL of PI in the presence of RNase A (300 μg/mL) at 37° C. for 30 min. Cell cycle distribution was analyzed by fluorescence-activated cell sorting (FACS).

In series [10] the test system is cyclin B1, Cdc25C, Cdc2. The series is described as follows: Western blot of G2-M regulators. In kind it is cell-based, human. Particulars: PC-3 cells, 24 h treatment. As for the experimental part:
Treated cells were lysed in cold lysis buffer (20 mM Tris-HCl, pH 7.5, 150 mM NaCl, 1 mM Na2 EDTA, 1% Triton x-100, and freshly added Na3VO4 (2 mM), NaF (20 mM) and complete protease inhibitor cocktail). For each sample, an aliquot (20 to 40 μg) of total protein was loaded and run on a SDS-Page gel. Protein was transferred to nitrocellulose membranes (Bio-Rad Laboratories, Hercules, Calif.), blocked with 5% non-fat milk, incubated with primary antibody overnight at 4° C., and then incubated with secondary antibody at rt for 1 h. ECL™ (GE Healthcare Bio-Sciences Corp., Piscataway, N.J.) was used for detection. The band intensity was measured by densitometry using TotalLab TL100 Software v2006 (Nonlinear Dynamics Ltd., Newcastle upon Tyne, UK).

The subject of series [11] is MES-SA xenografts. The series is described as follows: In vivo antitumor efficacy, MES-SA xenograft. Details: species or system mice. The note with it: q2d, i.p. On the procedure: The control group was treated with vehicle (10% DMSO in PEG300).
The test system of series [12] is PC-12 cells. Briefly: In vitro NGF-dependent neurite outgrowth. In kind it is cell-based. As for the experimental part:
PC-12 cells were seeded in 6-well plates coated with poly-D-lysine (BD, Franklin Lakes, N.J.) (10000 cells/well). After 6 h, cells were pretreated for 3 days by adding 100 ng/mL murine 2.5S β-NGF (Promega, Madison, Wis.) to induce neuronal differentiation and neurite outgrowth. Differentiated cells were then treated for 24 h with compounds at various concentrations in the presence of NGF (100 ng/mL). Vinblastine and docetaxel were used as positive controls. After compound treatments, approximately 100 cells in each well were randomly chosen and the numbers of cells with no neurites, short neurites (<2×cell body), and long neurites (>2×cell body) were counted (n=3).

A short description of series [13]: Rotarod performance. In kind it is in vivo, ICR mice. As for the experimental part: The training and rotarod test was conducted as described previously. Briefly, during the training phase for 2 consecutive days (3 trials/day), mice (10 mice/group) were trained to run in a rotarod apparatus without falling at a constant speed (12 rpm) for a maximum of 2 min. For the rotarod performance test, duration of each trial was less than 5 min. […] Tests were performed for 2 weeks (2 days/week). The animals were tested in three trials per day with an intertrial interval of 30 min. Animal performance was recorded as the average elapsed time for the mice to fall off.

On to `O=C(c1cccc(-c2cc3ccccc3[nH]2)c1)c1cc2ccccc2[nH]1` [Compound 13, (1H-indol-2-yl)-[3-(1H-indol-2-yl)phenyl]methanone], for which the IC50 in [1] amounted to 78.3 ± 35 nM.

As to `COc1cc(C(=O)c2cccc(-c3cc4ccccc4[nH]3)c2)cc(OC)c1OC` [Compound 68, [3-(1H-Indol-2-yl)-phenyl]-(3,4,5-trimethoxy-phenyl)-methanone], the half-inhibitory concentration (IC50) in series [2] was 15.1 ± 1.3 nM; in [3], 39.2 ± 2.9 nM; in series [4], 17.6 ± 2.1 nM; in series [5] it was 23.8 ± 1.7 nM; in [6] (Homo sapiens, MES-SA/DX5, P-gp over-expressed, 96 h) it was 32.3 ± 8.2 nM. In series [6], the “resistance factor (ratio of IC50 resistant subline to parental cell line)” value is on record as “(1.0)”. The molecule further returned a half-inhibitory concentration (IC50) at 96 h in [7] of 30.4 ± 6.4 nM. The figures for the EC50 in [8] and in series [9] were 42.7 nM and 34 nM, respectively. Also, the “percentage of PC-3 cells in G2M phase” value in series [9] (10 nM (control 19)) is listed as 24%; in [9] (50 nM (control 19)), 63%; in series [9] (100 nM (control 19)) it was 77%. Besides, the “percentage of sub-G1 phase” value is listed as 0.5% in series [9] (10 nM (control 0.2)), 0.7% in series [9] (50 nM (control 0.2)) and 1.3% in [9] (100 nM (control 0.2)). In series [10], the “concentration at which cyclin B1 accumulation, Cdc25C (Ser216) and Cdc2 dephosphorylation were observed” value was “higher than 50 nM”. In addition, the “TGI (tumor growth inhibition)” value is reported as 47% in series [11] (5 mg/kg) and 74% in [11] (10 mg/kg). For the same molecule, the cells with neurites in [12] (PC12, 50 nM, 'a more toxic dose than IC50 value') is listed as 60%. In addition, the “cells showing neurite elongation” value in series [12] (PC12, NGF 100 ng/mL, 24 h, 50 nM (vehicle 88%)) is given as 59%. For the same molecule, the rotarod performance result in series [13] (10 mg/kg i.p. q2d, 2 weeks, vs vehicle control) is given as “did not show impaired rotarod performance; also recorded: no loss of function”.

As for `CC[C@]1(O)C[C@@H]2CN(CCc3c([nH]c4ccccc34)[C@@](C(=O)OC)(c3cc4c(cc3OC)N(C)[C@H]3[C@@](O)(C(=O)OC)[C@H](OC(C)=O)[C@]5(CC)C=CCN6CC[C@]43[C@@H]65)C2)C1` [Vinblastine], the IC50 in series [2] amounted to 2.4 ± 0.2 nM; in [3], 1.4 ± 0.4 nM; in series [4] it was 1.6 ± 0.1 nM; in series [5], 5 ± 1 nM. The “resistance factor (ratio of IC50 resistant subline to parental cell line)” value in [6] is “(20)”. Besides, the half-maximal inhibitory concentration (IC50) at 96 h in series [7] was 24.3 ± 2 nM. For the same molecule, the 50% effective concentration (EC50) in [8] worked out at 8.1 nM; in [9], 7 nM. Further, the “TGI (tumor growth inhibition)” value in series [11] (0.5 mg/kg) was found to be 48%. Moreover, the “cells with long neurites” value in [12] (PC12, NGF 100 ng/mL, 24 h, 5 nM) turned out to be 1.5%. In addition, in series [12] (PC12, NGF 100 ng/mL, 24 h, 5 nM (vehicle 88%)), the “cells with elongated neurites” value was “Twenty-one”. The rotarod performance result in series [13] (0.5 mg/kg i.p. q2d, day 4 to day 14) is “impaired performance”. In addition, the “mean time on the rotating rod” value in [13] (0.5 mg/kg i.p. q2d, end of 2 weeks (vehicle 151 s)) worked out at 121 s.

In general, IC50 refers to the concentration that inhibits the measured activity by half. The low end stands for higher potency, the high end for lower potency. The EC50 is the concentration giving half of the maximal effect.
